Tests used:
[1] = Bulk / apparent density (m/V0); assay type: physicochemical; conditions: prior to granulation and/or formulation
Excerpt: It is within the ability of one of skill in the art to determine the bulk density of a compound or composition using methods generally accepted in the art. However, suitable methods include, for example, the European Pharmacopeia edition 6, Test 2.9.15 “apparent volume,” pages 285-286, EDQM, 2007, and USP 31, vol. 1 test <616> page 231-232, The United States Pharmacopeia Convention, 2008. An example of a suitable method is described below:
Apparatus: • settling apparatus capable of producing in 1 minute 250±15 taps from a height of 3±0.2 mm. The support for the graduated cylinder with its holder, has a mass of 450±5 g • a 250 ml graduated cylinder (2 ml intervals) with a mass of 220±40 g
Method: Into a dry cylinder, introduce without compacting, 100.0 g (m g) of the test substance. Secure the cylinder in its holder. Read the unsettled apparent volume (V0) to the nearest milliliter. Carry out 10, 500 and 1250 taps and read the corresponding volumes V10, V500, V1250, to the nearest milliliter. If the difference between V500 and V1250 is greater than 2 ml, carry out another 1250 taps.
Alternatively, if it is not possible to select 100.0 g, select a test sample of any mass but with a volume between 50 ml and 250 ml, measure its apparent volume, V0 as described above, and weigh the sample and specify the mass in the expression of results. Bulk/apparent density may then be determined in g/ml using the following formula: m/V0 where m is the mass in grams and V0 the unsettled apparent volume.
(§1) The granules and final compositions were evaluated for bulk and tapped density using the methods described above. Flowability was also accessed by testing the flow rate through an orifice described in USP 31, vol. 1, test <1174>, The United States Pharmacopeia Convention, 2008. The flowability was measured as the mass per time flowing through the 10 mm diameter opening of a glass funnel.

[2] = Flowability: flow rate through 10 mm orifice of a glass funnel (USP <1174>); assay type: physicochemical; conditions: API before granulation
Excerpt: It is within the ability of one of skill in the art to determine the flowability of a compound or composition using methods generally accepted in the art. However, suitable methods include but are not limited to, testing the flow rate through an orifice described in USP 31, vol. 1, test <1174>, The United States Pharmacopeia Convention, 2008, in which case, the flowability may be measured as the mass per time flowing through the 10 mm diameter opening of a glass funnel.
as §1

Row | bulk density of the API alone [1] | bulk density of the API alone ([1]; listed as 2,5-dichloro-3-(5-(3,4-dihydroxy-5-nitrophenyl)-1,2,4-oxadiazol-3-yl)-4,6-dimeth) | flow of the API alone [2] | SMILES
1 | around 0.2 g/ml |  |  | Cc1nc(Cl)c(-c2noc(-c3cc(O)c(O)c([N+](=O)[O-])c3)n2)c(C)c1Cl [5-[3-(2,5-dichloro-4,6-dimethylpyridin-3-yl)-[1,2,4]oxadiazol-5-yl]-3-nitrobenzene-1,2-diol]
2 | < 0.1 g/mL | less than 0.1 g/ml | no flow | Cc1c(Cl)c(C)[n+]([O-])c(Cl)c1-c1noc(-c2cc(O)c(O)c([N+](=O)[O-])c2)n1 [API, 2,5-dichloro-3-(5-(3,4-dihydroxy-5-nitrophenyl)-1,2,4-oxadiazol-3-yl)-4,6-dimethylpyridine 1-oxide]

From patent US10583130B2, “Pharmaceutical formulations compromising nitrocatechol derivatives and methods of making thereof” (BIAL—Portela & Cᵃ, S.A., priority 2009, dated 2020)
